Structures can show the parent of a compound that is named as a salt.
Tested on: Bacteria mixture 1 (Pseudomonas genus)
Assay: Repetitive stress test of paints with bacteria mixture 1, semiquantitative evaluation (examples 2 and 3)
Type: cell-based
From the text: Paints 1 to 3 were mixed and homogenized with various concentrations of the guanidinium salts to be tested.
The batches obtained of the paint thus prepared were inoculated repeatedly with a mixture of different wild-type bacterial strains that are of practical relevance with regard to contamination. These bacteria had previously been isolated from commercial emulsion paints containing conventional preservatives (bacteria mixture 1, Pseudomonas genus), which are microbially contaminated in practice, and commercial so-called preservative-free alkaline emulsion paints (bacteria mixture 2, alkaliphilic bacteria of the Nesterenkonia & Alkalibacterium genus), which are microbially contaminated in practice.
• Pseudomonas spp. (Pseudomonas oleovorans group) DSM 33933 • Pseudomonas aeruginosa DSM 33935 • Pseudomonas oleovorans DSM 33936 • Pseudomonas putida DSM 33937 • Pseudomonas aeruginosa DSM 33938
The inoculum was added to the respective sample in each inoculation at 2% (v/w) as a fresh cell suspension in a physiological saline solution (0.9% NaCl). The cell count of the added inoculum in example 1 was 10^5/ml, in examples 2 to 5 10^9/ml, and in example 6 10^6/ml, each in equal portions consisting of the individual bacterial strains. The cell suspension was produced by growing the individual bacteria at 30° C. for 24 h in liquid culture on a shaker. The medium used to grow the bacteria from bacteria mixture 1 was Müller-Hinton liquid medium. Bacteria from bacteria mixture 2 were grown in Müller-Hinton liquid medium that had been adjusted to pH 9.5-9.7 with an alkaline buffer solution beforehand. After growing, the individual liquid cultures were centrifuged, and the cells were resuspended in physiological saline solution. In order to adjust the mixture to the desired cell count, the individual bacteria suspensions, if necessary, were diluted accordingly before being combined with saline solution. The cell count of the inoculum was determined in each case by chamber counting.
In examples 2 to 6, what is called a repetitive stress test with bacteria was conducted by inoculating the samples at particular time intervals repeatedly with a bacteria suspension having a cell count of 10^9/ml (2% v/w) and monitoring the evolution of the bacteria by a semiquantitative evaluation method. After each inoculation, the samples were incubated at 30° C. for 6 days (bacteria mixture 1 and 3) or 7 and 14 days (bacteria mixture 2), and after these periods bacterial infestation was evaluated semiquantitatively in each case. For this purpose, an aliquot was taken from each sample after homogenization using a sterile plastic inoculation loop (10 μl) and streaked evenly on agar plates (bacteria mixture 1 and 3 on tryptic soy agar, bacteria mixture 2 on DSMZ 31 alkaline nutrient agar). The streaked agar plates were then incubated at 30° C. for 48 h (bacteria mixture 1 and 3) or 5 to 7 days (bacteria mixture 2). After incubation, the bacterial colonies grown on the agar plates were visually evaluated and quantified according to the following scheme:
A total of 3 inoculation cycles was performed in each repetitive stress test.
Inoculation 2% (w/v) with Bacteria Mixture 1, 10^9 CFU/ml
2% (w/v) Inoculation with Bacteria Mixture 1, […]

Measured: Stabilization of the paint against microbial infestation

N=C(N)N [guanidine hydrochloride]
distinct stabilization: table 2, addition of 0.25% by weight to paint 1 having a pH of pH 8.5 | table 2, addition of 0.25% by weight to paint 2 having a pH of 9.0 | table 3, paint 1, pH of 7.5, addition of 0.8% by weight | table 3, paint 2, pH of pH 7.6, addition of 0.8% by weight
